# Data taken from the kinase profiling compilation of Christmann-Franck et al. (2016).
# What was measured:
# Test in all cases: radiometric filter-binding kinase assay, Kinase HotSpot
# Settings in all cases: compound 0.5 µM; ATP 10 µM
# PAK2 (human) = PAK2 (human) (UniProt Q13177)
# ACVR1B (human) = ACVR1B (human) (UniProt P36896)
# MAP4K2 (human) = MAP4K2 (human) (UniProt Q12851)
# PDGFRB (human) = PDGFRB (human) (UniProt P09619)
# AURKC (human) = AURKC (human) (UniProt Q9UQB9)
# EGFR (human) = EGFR (human) (UniProt P00533)
# CAMKK2 (human) = CAMKK2 (human) (UniProt Q96RR4)
# AURKA (human) = AURKA (human) (UniProt O14965)
# TTK (human) = TTK (human) (UniProt P33981)
# MAP3K14 (human) = MAP3K14 (human) (UniProt Q99558)
# LIMK1 (human) = LIMK1 (human) (UniProt P53667)
# PLK1 (human) = PLK1 (human) (UniProt P53350)
# MAPK14 (human) = MAPK14 (human) (UniProt Q16539)
# MAPK14 (human), sequence (Q16539 whole entry, looked up): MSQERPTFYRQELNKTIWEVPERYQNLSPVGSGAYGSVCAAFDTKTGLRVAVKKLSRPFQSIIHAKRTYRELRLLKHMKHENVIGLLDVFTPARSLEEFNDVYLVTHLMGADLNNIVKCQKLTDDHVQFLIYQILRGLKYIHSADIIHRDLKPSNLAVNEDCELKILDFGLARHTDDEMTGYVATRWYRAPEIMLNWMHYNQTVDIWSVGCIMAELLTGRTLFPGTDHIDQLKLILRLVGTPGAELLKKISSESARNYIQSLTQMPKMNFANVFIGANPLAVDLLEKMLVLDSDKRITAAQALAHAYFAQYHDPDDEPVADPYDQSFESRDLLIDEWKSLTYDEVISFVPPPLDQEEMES
# FRK (human) = FRK (human) (UniProt P42685)
# FRK (human), sequence (P42685 whole entry, looked up): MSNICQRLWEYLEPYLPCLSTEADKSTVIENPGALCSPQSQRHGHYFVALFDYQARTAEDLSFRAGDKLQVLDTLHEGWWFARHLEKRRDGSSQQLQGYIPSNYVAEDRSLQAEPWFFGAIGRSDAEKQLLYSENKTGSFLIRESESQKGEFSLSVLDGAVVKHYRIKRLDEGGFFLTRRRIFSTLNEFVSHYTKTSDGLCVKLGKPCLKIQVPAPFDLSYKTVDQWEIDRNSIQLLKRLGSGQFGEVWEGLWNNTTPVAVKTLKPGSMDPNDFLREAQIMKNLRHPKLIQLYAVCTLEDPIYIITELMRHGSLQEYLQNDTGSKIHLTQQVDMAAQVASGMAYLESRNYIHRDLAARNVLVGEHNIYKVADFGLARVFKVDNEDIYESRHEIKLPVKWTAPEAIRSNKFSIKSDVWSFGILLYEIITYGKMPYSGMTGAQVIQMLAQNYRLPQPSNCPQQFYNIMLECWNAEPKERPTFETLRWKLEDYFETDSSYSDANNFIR
# EPHA4 (human) = EPHA4 (human) (UniProt P54764)
# PASK (human) = PASK (human) (UniProt Q96RG2)
# EPHA5 (human) = EPHA5 (human) (UniProt P54756)
# CDK2 CCNE1 (human) = CDK2 CCNE1 (human) (UniProt P24941+P24864)
# DAPK2 (human) = DAPK2 (human) (UniProt Q9UIK4)
# DAPK2 (human), sequence (Q9UIK4 whole entry, looked up): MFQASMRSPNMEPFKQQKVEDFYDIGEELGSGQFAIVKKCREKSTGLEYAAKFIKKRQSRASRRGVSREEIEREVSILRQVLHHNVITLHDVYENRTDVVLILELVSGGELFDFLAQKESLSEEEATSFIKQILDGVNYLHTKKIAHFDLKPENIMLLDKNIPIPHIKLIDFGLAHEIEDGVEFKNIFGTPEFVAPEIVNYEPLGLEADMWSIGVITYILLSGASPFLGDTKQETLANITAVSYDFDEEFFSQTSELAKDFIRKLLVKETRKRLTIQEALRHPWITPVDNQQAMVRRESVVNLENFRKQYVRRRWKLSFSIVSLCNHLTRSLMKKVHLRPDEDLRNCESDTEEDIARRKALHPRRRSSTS
# FGFR2 (human) = FGFR2 (human) (UniProt P21802)
# [1] = molecular target: JAK1 JH1 catalytic (human) (UniProt P23458)
# MKNK2 (human) = MKNK2 (human) (UniProt Q9HBH9)
# AXL (human) = AXL (human) (UniProt P30530)
# AXL (human), sequence (P30530 whole entry, looked up): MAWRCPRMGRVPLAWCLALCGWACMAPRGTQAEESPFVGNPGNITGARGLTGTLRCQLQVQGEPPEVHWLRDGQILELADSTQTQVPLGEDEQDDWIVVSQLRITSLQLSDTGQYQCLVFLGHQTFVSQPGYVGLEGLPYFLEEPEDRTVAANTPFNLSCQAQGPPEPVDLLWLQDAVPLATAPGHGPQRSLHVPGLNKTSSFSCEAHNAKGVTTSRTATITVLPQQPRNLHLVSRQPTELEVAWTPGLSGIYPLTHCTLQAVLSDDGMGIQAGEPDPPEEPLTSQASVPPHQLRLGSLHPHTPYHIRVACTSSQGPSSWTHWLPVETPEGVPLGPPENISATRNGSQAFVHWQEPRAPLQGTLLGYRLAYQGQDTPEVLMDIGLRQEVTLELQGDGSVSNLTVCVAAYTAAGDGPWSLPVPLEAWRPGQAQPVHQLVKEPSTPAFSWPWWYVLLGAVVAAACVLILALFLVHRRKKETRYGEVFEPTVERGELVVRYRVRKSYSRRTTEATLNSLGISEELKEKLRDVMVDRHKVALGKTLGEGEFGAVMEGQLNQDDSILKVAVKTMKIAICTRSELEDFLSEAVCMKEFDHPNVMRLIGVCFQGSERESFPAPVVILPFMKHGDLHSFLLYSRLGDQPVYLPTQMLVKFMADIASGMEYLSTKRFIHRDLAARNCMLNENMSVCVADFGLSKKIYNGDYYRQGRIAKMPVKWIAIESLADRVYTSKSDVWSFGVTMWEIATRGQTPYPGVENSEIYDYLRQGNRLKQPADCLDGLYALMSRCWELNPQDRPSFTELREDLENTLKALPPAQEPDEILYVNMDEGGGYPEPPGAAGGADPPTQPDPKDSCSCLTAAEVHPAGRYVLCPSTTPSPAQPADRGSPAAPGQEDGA
# NEK2 (human) = NEK2 (human) (UniProt P51955)
# NEK2 (human), sequence (P51955 whole entry, looked up): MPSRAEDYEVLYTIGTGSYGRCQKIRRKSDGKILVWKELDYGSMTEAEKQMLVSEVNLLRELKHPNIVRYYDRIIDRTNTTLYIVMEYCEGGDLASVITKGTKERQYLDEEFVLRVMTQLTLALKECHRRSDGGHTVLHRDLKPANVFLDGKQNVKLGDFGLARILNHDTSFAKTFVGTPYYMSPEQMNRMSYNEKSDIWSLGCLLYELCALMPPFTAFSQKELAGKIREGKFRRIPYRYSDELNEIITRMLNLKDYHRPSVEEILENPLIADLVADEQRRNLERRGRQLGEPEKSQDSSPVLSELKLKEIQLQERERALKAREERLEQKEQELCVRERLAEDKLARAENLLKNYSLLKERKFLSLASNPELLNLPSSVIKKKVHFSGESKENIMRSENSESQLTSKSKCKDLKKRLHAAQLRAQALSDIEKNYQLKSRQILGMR
# MAPKAPK2 (human) = MAPKAPK2 (human) (UniProt P49137)
# MAPKAPK2 (human), sequence (P49137 whole entry, looked up): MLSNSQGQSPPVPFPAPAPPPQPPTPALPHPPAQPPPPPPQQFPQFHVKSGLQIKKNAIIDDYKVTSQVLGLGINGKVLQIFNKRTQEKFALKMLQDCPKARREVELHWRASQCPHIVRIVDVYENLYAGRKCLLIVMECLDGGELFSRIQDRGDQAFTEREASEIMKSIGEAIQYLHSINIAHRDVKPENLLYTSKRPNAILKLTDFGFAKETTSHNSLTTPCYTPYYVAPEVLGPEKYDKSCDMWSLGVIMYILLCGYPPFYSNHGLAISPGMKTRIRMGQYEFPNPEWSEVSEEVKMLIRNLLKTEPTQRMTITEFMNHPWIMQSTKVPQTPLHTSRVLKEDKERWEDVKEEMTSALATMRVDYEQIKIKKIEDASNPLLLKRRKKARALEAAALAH
# OXSR1 (human) = OXSR1 (human) (UniProt O95747)
# CAMK2B (human) = CAMK2B (human) (UniProt Q13554)
# CAMK2D (human) = CAMK2D (human) (UniProt Q13557)
# ROCK1 (human) = ROCK1 (human) (UniProt Q13464)
# CHEK1 (human) = CHEK1 (human) (UniProt O14757)
# DYRK1A (human) = DYRK1A (human) (UniProt Q13627)
# JAK2 JH1 JH2 (human) = JAK2 JH1 JH2 (human) (UniProt O60674)
# ERBB2 (human) = ERBB2 (human) (UniProt P04626)
# ABL1 (human) = ABL1 (human) (UniProt P00519)
# ABL1 (human), sequence (P00519 whole entry, looked up): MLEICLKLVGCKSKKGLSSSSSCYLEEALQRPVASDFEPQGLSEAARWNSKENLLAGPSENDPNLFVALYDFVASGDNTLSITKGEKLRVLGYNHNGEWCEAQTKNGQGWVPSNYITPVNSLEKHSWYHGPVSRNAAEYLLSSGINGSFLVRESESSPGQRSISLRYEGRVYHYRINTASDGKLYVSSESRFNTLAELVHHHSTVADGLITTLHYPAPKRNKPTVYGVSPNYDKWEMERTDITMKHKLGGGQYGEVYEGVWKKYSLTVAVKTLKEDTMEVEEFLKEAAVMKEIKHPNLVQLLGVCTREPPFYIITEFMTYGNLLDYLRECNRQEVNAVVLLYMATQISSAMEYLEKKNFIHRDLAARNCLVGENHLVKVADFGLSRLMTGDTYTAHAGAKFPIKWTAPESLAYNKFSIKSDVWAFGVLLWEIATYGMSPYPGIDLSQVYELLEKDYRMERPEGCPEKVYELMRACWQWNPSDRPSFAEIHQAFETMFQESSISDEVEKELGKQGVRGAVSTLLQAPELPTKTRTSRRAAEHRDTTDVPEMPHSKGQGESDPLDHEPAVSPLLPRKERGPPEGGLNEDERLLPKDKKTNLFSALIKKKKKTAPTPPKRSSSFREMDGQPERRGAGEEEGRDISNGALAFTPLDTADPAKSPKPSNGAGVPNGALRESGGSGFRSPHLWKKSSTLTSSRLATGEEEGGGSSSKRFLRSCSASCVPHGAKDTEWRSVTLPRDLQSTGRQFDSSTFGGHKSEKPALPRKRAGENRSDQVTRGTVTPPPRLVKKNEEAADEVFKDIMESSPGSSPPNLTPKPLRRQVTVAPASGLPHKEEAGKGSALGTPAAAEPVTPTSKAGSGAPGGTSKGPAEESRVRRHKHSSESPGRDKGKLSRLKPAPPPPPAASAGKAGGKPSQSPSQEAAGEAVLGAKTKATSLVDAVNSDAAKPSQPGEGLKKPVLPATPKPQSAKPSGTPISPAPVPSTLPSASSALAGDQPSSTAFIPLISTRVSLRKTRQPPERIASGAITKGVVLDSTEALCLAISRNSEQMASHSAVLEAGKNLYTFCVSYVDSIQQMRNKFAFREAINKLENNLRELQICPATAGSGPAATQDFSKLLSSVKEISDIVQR
# TXK (human) = TXK (human) (UniProt P42681)
# KIT (human) = KIT (human) (UniProt P10721)
# LCK (human) = LCK (human) (UniProt P06239)
# LCK (human), sequence (P06239 whole entry, looked up): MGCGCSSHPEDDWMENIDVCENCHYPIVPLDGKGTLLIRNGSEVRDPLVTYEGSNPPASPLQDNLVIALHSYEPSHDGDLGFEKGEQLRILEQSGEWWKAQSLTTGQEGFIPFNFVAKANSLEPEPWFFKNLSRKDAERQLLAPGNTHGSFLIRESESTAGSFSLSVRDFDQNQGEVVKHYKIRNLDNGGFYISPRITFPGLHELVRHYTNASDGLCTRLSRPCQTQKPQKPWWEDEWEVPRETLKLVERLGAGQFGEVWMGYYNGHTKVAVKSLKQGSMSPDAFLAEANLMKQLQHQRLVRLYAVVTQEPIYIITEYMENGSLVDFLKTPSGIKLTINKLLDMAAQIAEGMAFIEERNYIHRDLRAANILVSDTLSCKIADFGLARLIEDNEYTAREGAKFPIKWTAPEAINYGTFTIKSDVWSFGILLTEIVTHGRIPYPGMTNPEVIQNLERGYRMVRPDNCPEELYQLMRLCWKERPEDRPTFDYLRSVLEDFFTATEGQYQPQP
# SRPK1 (human) = SRPK1 (human) (UniProt Q96SB4)
# CSNK2A1 (human) = CSNK2A1 (human) (UniProt P68400)
# CSNK2A1 (human), sequence (P68400 whole entry, looked up): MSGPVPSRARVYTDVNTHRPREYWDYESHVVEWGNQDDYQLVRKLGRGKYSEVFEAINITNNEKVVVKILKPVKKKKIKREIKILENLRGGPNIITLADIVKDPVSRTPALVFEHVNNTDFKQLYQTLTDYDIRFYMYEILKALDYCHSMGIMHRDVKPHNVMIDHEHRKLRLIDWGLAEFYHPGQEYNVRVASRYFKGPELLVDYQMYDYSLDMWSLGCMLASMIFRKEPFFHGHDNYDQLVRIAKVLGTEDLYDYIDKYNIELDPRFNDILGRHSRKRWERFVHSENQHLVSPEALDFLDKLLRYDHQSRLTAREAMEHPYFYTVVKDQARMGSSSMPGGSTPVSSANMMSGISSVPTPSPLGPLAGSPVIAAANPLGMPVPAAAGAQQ
# RET (human) = RET (human) (UniProt P07949)
# EPHB4 (human) = EPHB4 (human) (UniProt P54760)
# CLK1 (human) = CLK1 (human) (UniProt P49759)
smiles,measurement,setting,value
COc1ccc(Cl)cc1NC(=O)Nc1cc(C)nc2ccccc12,residual activity,PAK2 (human),97.2%
same,residual activity,ACVR1B (human),97.4%
same,residual activity,MAP4K2 (human),114%
same,residual activity,PDGFRB (human),105%
same,residual activity,AURKC (human),99.9%
same,residual activity,EGFR (human),98%
same,residual activity,CAMKK2 (human),93.2%
same,residual activity,AURKA (human),93.4%
same,residual activity,TTK (human),103%
same,residual activity,MAP3K14 (human),84.9%
same,residual activity,LIMK1 (human),87.1%
same,residual activity,PLK1 (human),96.9%
same,residual activity,MAPK14 (human),98.5%
same,residual activity,FRK (human),98.4%
same,residual activity,EPHA4 (human),104%
same,residual activity,PASK (human),97.6%
same,residual activity,EPHA5 (human),123%
same,residual activity,CDK2 CCNE1 (human),94.6%
same,residual activity,DAPK2 (human),99.1%
same,residual activity,FGFR2 (human),96.9%
same,residual activity,[1],99.3%
same,residual activity,MKNK2 (human),90.3%
same,residual activity,AXL (human),94%
same,residual activity,NEK2 (human),106%
same,residual activity,MAPKAPK2 (human),109%
same,residual activity,OXSR1 (human),101%
same,residual activity,CAMK2B (human),103%
same,residual activity,CAMK2D (human),98.2%
same,residual activity,ROCK1 (human),100%
same,residual activity,CHEK1 (human),96.6%
same,residual activity,DYRK1A (human),103%
same,residual activity,JAK2 JH1 JH2 (human),99.6%
same,residual activity,ERBB2 (human),99.7%
same,residual activity,ABL1 (human),99.5%
same,residual activity,TXK (human),98.9%
same,residual activity,KIT (human),102%
same,residual activity,LCK (human),98.2%
same,residual activity,SRPK1 (human),82.5%
same,residual activity,CSNK2A1 (human),97.9%
same,residual activity,RET (human),102%
same,residual activity,EPHB4 (human),93.7%
same,residual activity,CLK1 (human),97.6%
